Assay results: article PMC7903134, “Human glucocerebrosidase mediates formation of xylosyl-cholesterol by β-xylosidase and transxylosidase reactions” (Journal of Lipid Research, 2021)

Tests used:
GBA3 = target: T1, GBA3 (Homo sapiens, UniProt Q9H227); test: hydrolysis and transxylosylation in lysates of GBA3-overexpressing HEK293 cells; type: cell-based
T1 construct: GBA3 overexpressed in HEK293 cells, lysate
T1 sequence (Q9H227 1-469): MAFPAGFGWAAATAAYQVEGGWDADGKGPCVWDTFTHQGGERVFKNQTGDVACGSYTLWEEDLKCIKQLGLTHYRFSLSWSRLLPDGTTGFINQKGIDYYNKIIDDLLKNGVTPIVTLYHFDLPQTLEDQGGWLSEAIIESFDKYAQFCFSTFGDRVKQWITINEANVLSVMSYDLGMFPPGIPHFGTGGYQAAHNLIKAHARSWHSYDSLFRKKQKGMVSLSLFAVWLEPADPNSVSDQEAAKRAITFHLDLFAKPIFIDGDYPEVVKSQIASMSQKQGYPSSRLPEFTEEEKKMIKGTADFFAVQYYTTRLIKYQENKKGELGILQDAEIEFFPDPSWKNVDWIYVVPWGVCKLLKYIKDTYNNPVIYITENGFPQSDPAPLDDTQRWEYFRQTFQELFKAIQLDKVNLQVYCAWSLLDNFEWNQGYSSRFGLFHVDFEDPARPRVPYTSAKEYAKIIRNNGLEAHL

[1] = target: T2, glucosylceramide synthase (GCS) (Homo sapiens, UniProt Q16739); test: XylCer formation in lysates of HeLa, GCS KO and GCS-reexpressing cells, LC-MS/MS; type: cell-based
T2 construct: gene UGCG; GCS overexpressed in HeLa GCS KO cells, lysate
T2 sequence (Q16739 1-394): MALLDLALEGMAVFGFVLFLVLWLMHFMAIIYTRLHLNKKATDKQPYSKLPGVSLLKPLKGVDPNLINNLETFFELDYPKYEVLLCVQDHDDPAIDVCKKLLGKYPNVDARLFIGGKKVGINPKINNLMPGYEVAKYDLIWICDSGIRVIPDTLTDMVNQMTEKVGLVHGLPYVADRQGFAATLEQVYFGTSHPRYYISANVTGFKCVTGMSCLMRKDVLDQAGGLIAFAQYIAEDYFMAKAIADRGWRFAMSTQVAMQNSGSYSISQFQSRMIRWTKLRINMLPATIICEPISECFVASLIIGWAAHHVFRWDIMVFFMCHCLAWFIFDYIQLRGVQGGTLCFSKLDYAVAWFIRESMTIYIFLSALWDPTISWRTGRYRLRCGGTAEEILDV
Excerpt: formation in lysates of HeLa, GCS KO and GCS-reexpressing cells, LC-MS/MS on glucosylceramide synthase (GCS) | Expression of GCS in the GCS KO cells reinstalled their ability to produce […]

[2] = target: T3, glucocerebrosidase (GBA), recombinant human (rhGBA, Cerezyme) (Homo sapiens, UniProt P04062); test: transxylosylation/transglucosylation acceptor, LC-MS/MS of products; type: biochemical
T3 construct: gene GBA1
T3 sequence (P04062 40-536): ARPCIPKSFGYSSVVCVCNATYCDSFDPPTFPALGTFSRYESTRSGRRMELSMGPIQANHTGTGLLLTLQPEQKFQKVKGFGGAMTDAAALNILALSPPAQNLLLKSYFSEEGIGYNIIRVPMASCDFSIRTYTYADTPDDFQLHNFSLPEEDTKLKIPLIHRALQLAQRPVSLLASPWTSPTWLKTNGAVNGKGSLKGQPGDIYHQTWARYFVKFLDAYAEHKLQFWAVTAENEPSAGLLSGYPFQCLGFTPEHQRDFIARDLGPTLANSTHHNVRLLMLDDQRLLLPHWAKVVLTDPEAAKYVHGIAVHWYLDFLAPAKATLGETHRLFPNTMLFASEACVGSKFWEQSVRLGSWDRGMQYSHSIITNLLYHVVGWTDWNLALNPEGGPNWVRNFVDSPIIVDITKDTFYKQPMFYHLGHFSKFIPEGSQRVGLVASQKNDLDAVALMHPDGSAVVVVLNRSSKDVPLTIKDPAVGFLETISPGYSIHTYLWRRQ

glucocerebrosidase (GBA) = target: T4, glucocerebrosidase (GBA) (Mus musculus, UniProt P17439); test: irreversible GBA inhibition in RAW264.[…] cells ([…]); xylosylated cholesterol by LC-MS/MS; type: cell-based
T4 construct: gene Gba1; endogenous GBA in RAW264.7 cells
T4 sequence (P17439 20-515): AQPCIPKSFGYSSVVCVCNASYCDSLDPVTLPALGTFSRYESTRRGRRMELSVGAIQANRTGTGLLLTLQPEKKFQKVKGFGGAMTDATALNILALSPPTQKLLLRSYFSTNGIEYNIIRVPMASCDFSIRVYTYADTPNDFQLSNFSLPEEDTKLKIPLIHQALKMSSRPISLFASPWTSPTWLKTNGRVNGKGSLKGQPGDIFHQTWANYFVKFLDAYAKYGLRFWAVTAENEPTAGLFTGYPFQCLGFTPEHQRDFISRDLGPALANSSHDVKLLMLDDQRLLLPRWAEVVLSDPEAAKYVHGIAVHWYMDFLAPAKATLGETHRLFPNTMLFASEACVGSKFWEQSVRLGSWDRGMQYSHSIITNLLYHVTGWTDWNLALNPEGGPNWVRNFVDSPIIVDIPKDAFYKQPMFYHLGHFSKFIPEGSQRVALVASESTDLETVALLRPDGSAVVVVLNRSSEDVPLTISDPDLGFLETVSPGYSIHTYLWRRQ

[3] = target: T3, glucocerebrosidase (GBA), recombinant human (rhGBA, Cerezyme); test: fluorogenic 4-MU-β-Xyl ([…]) and 4-MU-β-Glc ([…]) hydrolysis after […] min preincubation; type: biochemical

SMILES: Cc1cc(=O)oc2cc(O[C@@H]3OC[C@@H](O)[C@H](O)[C@H]3O)ccc12 [4-methylumbelliferyl β-D-xyloside]
- hydrolysis and transxylosylation in lysates of GBA3-overexpressing HEK293 cells (GBA3): GBA3, albeit less prominent than GBA, was found to be able to hydrolyze 4-MU-β-Xyl

SMILES: O=c1ccn([C@@H]2O[C@H](COP(=O)(O)OP(=O)(O)O[C@H]3OC[C@@H](O)[C@H](O)[C@H]3O)[C@@H](O)[C@H]2O)c(=O)[nH]1 [UDP-Xyl]
- XylCer formation in lysates of HeLa, GCS KO and GCS-reexpressing cells, LC-MS/MS [1]: Expression of GCS in the GCS KO cells reinstalled their ability to produce XylCer

SMILES: CC(C)CCC[C@@H](C)[C@H]1CC[C@H]2[C@@H]3CC=C4C[C@@H](O)CC[C@]4(C)[C@H]3CC[C@]12C [cholesterol]
- transxylosylation/transglucosylation acceptor, LC-MS/MS of products [2]: we used natural cholesterol as the acceptor and 4-MU-β-Xyl as the donor

SMILES: O[C@H]1[C@H](O)[C@@H](O)[C@@H]2O[C@@H]2[C@@H]1O [conduritol B-epoxide, L-1,2-anhydro-myo-inositol]
- irreversible GBA inhibition in RAW264.7 cells (300 μM); xylosylated cholesterol (glucocerebrosidase (GBA)): formation was prohibited by prior inhibition of GBA with CBE

SMILES: OC[C@@H]1[C@@H](O)[C@H](O)[C@@H](O)[C@@H]2O[C@H]12 [cyclophellitol]
- IC50 [3]: 61 nM
